Data on one molecule can be found in article PMC7614687, “Modulation of the substrate specificity of the kinase PDK1 by distinct conformations of the full-length protein*” (Science signaling, 2023).

This assay deals with T1, GST-PDK1_360-556 (Homo sapiens, UniProt O15530).
T1 construct: GST-PDK1_360-556 (GST-PDK1-Linker-PH) was cloned into the BamHI-KpnI sites in pEBG2T plasmid; made in house; host or cells: HEK293 cells (transient transfection of pEBG2T)
T1 sequence (O15530 360-556): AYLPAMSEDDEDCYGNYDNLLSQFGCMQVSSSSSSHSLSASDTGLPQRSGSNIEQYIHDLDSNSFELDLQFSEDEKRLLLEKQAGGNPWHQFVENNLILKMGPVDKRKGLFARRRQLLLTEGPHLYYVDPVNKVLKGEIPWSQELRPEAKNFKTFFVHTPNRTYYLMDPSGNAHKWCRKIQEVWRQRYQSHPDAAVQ
The assay can be described thus: AlphaScreen biotin-PIP3 / GST-PDK1_360-556 (linker-PH domain) displacement. The format is binding. Particulars: relative to 5 nM on GST-PDK1_1-556. As for the experimental part:
The AlphaScreen® assay was performed following the general guidelines from the manufacturer (Perkin Elmer) ([29]). In short, the assay was performed in a final volume of 25 μl in white 384-well microtiter plates (Greiner) in a standard buffer containing 50 mM Tris-HCl (pH 7.4), 100 mM NaCl, 2 mM DTT, 0.01% (v/v) Tween-20 and 0.1% (w/v) BSA, with the addition of 5 μl of beads (anti-GST coated acceptor beads and streptavidin-coated donor beads; nickel chelate-coated acceptor beads and streptavidin-coated donor beads; or nickel chelate-coated acceptor beads and GSH-coated donor beads, 20 μg/ml final concentrations for each bead type). […]
The conditions for each AlphaScreen assay were identified in cross-titration experiments for each interaction to choose the ideal pair of concentrations within the linear range of the interactions. […] His-PDK1 and GST-fusion protein in the presence or absence of the different compounds were incubated in the dark for 60 min at room temperature and the emission of light from the acceptor beads was measured in an EnVision reader (Perkin Elmer) or Spark plate reader (Tecan). […]
Biotin-PIP3 interactions with GST-PDK1_1-556 or GST-PDK1_360-556 were assessed in the standard buffer. […]
(Bead proximity is the source of the signal in Alpha formats.)

Structures are written as SMILES.

Consider `CCCCO[C@H]1[C@@H](OP(=O)(O)O)[C@H](OP(=O)(O)O)[C@@H](OP(=O)(O)O)[C@H](OP(=O)(O)O)[C@H]1OP(=O)(O)O` [HYG14, 2-O-butyl-IP5], for which the “fold higher concentration needed for similar displacement of PIP3 from GST-linker-PH domain than from GST-PDK1_1-556” value is “more than 1000 fold”.
